Reference: patent US10494341B2, “Compound containing indoleacetic acid core structure and use thereof” (Beijing An Jian Xi Bio-Medical Technology Co., Ltd., priority 2015, dated 2019)

How the values were obtained:
Type in all cases: in vivo
COX-1 in gastric mucosa = target: T1, COX-1 in gastric mucosa (Rattus norvegicus, UniProt Q63921); assay: COX-1 activity assay, gastric mucosa (thromboxane B2 EIA) after oral dosing of A23187-treated rats; details: for reduction of inhibition against COX-1 in gastric mucosal tissue compared with intermediate I: gavage 1, 3, 9 mg/kg/day, intermediate I 0.5 mg/kg, 6 h after dosing; for effect of inhibiting COX-1 in gastric mucosa: gavage, A23187-activated
T1 construct: from tissue; host or cells: rat gastric mucosa (in vivo dosing, tissue homogenate supernatant)
T1 sequence (Q63921 27-602): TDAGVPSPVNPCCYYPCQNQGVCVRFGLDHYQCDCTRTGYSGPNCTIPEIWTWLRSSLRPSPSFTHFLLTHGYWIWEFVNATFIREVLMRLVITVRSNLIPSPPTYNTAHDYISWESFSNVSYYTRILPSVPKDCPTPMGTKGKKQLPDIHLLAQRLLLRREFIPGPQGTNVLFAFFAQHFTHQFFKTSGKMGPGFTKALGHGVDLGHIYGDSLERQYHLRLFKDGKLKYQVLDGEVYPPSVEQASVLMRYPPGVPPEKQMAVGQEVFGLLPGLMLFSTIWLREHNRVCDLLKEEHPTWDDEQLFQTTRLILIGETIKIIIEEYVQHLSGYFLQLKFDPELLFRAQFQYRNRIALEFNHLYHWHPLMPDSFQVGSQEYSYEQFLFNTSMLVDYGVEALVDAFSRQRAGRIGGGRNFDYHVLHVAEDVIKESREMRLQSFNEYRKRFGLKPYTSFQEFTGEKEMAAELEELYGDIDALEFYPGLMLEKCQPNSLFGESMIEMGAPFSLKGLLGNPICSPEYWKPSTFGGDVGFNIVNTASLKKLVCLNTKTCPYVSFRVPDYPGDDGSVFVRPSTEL
Description: (1) COX-1 activity assay: 2 hours after intraperitoneal injection of calcium ionophore A23187 (50 mg/kg) to rats, each of the compounds a, b, c, d, e and f was orally administered (gavage) to three rats at a dose of 1, 3 and 9 mg/kg/day, respectively; the intermediate I was orally administered as a control drug to three rats at a dose of 0.5 mg/kg; and additional three rats were only administered with COX-1 activator, the calcium ionophore A23187, and were not administered with the compounds of the present invention. 6 hours after the compound of the present invention was administered, the animals were sacrificed, gastric mucosal tissue and myocardial tissue were collected, homogenized, and subjected to high-speed centrifugation (12,000 rpm), and the supernatant was collected for use. The amount of thromboxane B2 was measured using an enzyme-linked immunosorbent assay (EIA) kit (operated in accordance with the instructions provided by the manufacturer) and converted to COX1 activity.
(§1) The percentage inhibition rate against COX-1 (FIG. 1a—gastric mucosa, FIG. 1b—myocardium) and COX-2 (FIG. 1c) and the IC50 values (Table 1a—gastric mucosa; Table 1b—myocardium) of each tested pharmaceutical compound were calculated from the above data.

COX-2 = target: T2, COX-2 (Rattus norvegicus, UniProt P35355); assay: COX-2 activity assay (PGE2 in gastric mucosa, EIA) in LPS-treated rats; details: gavage, LPS 2.5 mg/kg-activated
T2 construct: from tissue; host or cells: rat gastric mucosa (LPS-treated rats, in vivo dosing)
T2 sequence (P35355 18-604): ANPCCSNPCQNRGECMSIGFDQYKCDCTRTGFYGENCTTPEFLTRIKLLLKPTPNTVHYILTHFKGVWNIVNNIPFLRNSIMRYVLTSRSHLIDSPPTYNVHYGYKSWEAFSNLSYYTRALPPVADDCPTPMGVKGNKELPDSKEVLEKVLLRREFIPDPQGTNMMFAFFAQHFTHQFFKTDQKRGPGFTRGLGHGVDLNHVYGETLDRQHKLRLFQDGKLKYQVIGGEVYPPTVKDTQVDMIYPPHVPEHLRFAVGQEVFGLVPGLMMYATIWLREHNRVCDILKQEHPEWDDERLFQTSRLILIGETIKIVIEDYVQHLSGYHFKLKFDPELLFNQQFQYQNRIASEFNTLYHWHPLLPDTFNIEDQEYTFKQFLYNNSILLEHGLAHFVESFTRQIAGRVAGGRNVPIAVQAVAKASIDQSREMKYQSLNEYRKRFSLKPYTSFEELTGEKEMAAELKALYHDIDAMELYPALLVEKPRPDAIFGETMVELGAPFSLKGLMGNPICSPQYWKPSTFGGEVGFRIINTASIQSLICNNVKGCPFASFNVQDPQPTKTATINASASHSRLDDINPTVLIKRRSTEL
Description: (2) COX-2 activity assay: The assay was similar to that of COX-1, except that LPS was injected intraperitoneally to rats at a dose of 2.5 mg/kg to activate COX-2 in this experiment. After administration, the content of PGE2 in gastric mucosa was measured using an enzyme-linked immunosorbent assay (EIA) kit (operated according to the instructions provided by the manufacturer) and converted to COX2 activity.
as §1

mice (C57BL/6J) = assay: Survival rate of mice irradiated by γ-rays; details: 30th day after 8.75 Gy γ-rays, 16 mice per group; for number of survived mice: intermediates each 3 mg/kg/day gavage; for survival rate: compounds 6 mg/kg/day gavage, amifostine 400 mg/kg/day i.p.
Description: In this experiment, 10-week-old male mice (C57BL/6J) weighing about 20 g were used as subjects, and 16 mice were taken as a group. The mice were divided into the following groups: 1. no γ-ray+no drug; 2. γ-ray+no drug; 3. γ-ray+amifostine; 4. γ-ray+intermediate I+intermediate II; 5. γ-ray+compound a; 6. γ-ray+compound b; and 7. γ-ray+compound d. Firstly, each group of mice was administered with a protective agent, and the specific amounts were as follows: compound a, b and d: 6 mg/kg/day (8.1 μM), amifostine: 400 mg/kg/day (1.5 mM), intermediate I+Intermediate II: each 3 mg/kg/day (8.1 μM). Except that amifostine was intraperitoneally injected (30 minutes before irradiation, amifostine was administered), the other protective agents were administered by gavage. 12 hours after administration, systemic irradiation was performed using cobalt 60γ-rays at a dose of 8.75Gy and a dose rate of 0.35 Gy/min for 25 minutes, with the radiation source 80 cm away from the mice. The mice were irradiated once, and continuously administered with drugs once daily for 10 days after irradiation. The number of survival mice was recorded. The percentage obtained by dividing the number of survival mice by the total number of mice in the experimental group (16 mice) is survival rate of mice, and the results are summarized in FIG. 7. […] It is noteworthy that in the experimental group using intermediate I+intermediate II, only one mouse is survived.

SMILES | reduction of inhibition against COX-1 in gastric mucosal tissue compared with intermediate I (COX-1 in gastric mucosa) [fold] | effect of inhibiting COX-1 in gastric mucosa (COX-1 in gastric mucosa) | inhibition against COX-2 (COX-2) | number of survived mice (mice (C57BL/6J)) [mice] | survival rate (mice (C57BL/6J)) [%]
COc1ccc2c(CC(=O)OCCCCCCCCCCc3c(C)c(O)c(OC)c(OC)c3O)c(C)n(C(=O)c3ccc(Cl)cc3)c2c1 [compound b] | ~700 | almost lose the effect of inhibiting COX-1 in gastric mucosa | significantly enhanced | 12 | 75
COC1=C(OC)C(=O)C(CCCCCCCCCCOC(=O)Cc2c(C)n(C(=O)c3ccc(Cl)cc3)c3cc(OC)ccc23)=C(C)C1=O [compound a] | ~700 | almost lose the effect of inhibiting COX-1 in gastric mucosa | significantly enhanced | 10 | 62.5
